Laboratory results: patent publication US12043601B2, “N-substituted-1H-1,2,4-triazole-3-carboxamides, analogues thereof, and methods of treatment using same” (THE REGENTS OF THE UNIVERSITY OF COLORADO, priority 2018, dated 2024)
In brackets after ≈: the same amount, converted by molar mass.

How the values were obtained:
DksA [1] = target: T1, DksA (Salmonella typhimurium, UniProt P0A1G5); test: DksA-dependent livJ in vitro transcription; format: biochemical; conditions: livJ promoter; for IVT: concentration showing activity
Experimental: (§1) To measure the potency of a compound in inhibition of DksA biological function, rpsMtranscripts in vitro was determined by non-radioactive in vitro transcription reactions with qPCR analysis with divergent compounds. Briefly, 5 nM pTIM-rpsMplasmid was mixed with […] of compounds in 10 μl reaction buffer (40 mM HEPES [pH 7.4], 2 mM MgCl2, 60 mM potassium glutamate, 0.05% NP-40, 200 μM ATP, 200 μM GTP, 200 μM CTP, 200 μM UTP, and 5 nM E. coli RNA polymerase holoenzyme (NEB, Ipswich, MA) with 5 μM DksA. The in vitro transcription was carried out at 37° C. for 10 min, and then terminated at 70° C. for 10 min. To remove template DNA after treated with DNaseI, DNA-free DNA Removal kit (ThermoFisher) was used according to manufacturer's direction. The resulting materials were used as templates to generate cDNA with 100 U MMLV reverse transcriptase (Promega), 0.45 μM gene specific primer, and 20 U RNase inhibitor (Promega). The amount of cDNA synthesized for 1 h at 42° C. was quantified by real-time PCR (qRT-PCR). The copy number of specific transcripts was calculated to the standard curve generated with known gene copy concentrations. The IC50 is the concentration at which the curve passes through the 50% inhibition level. Standard deviation was calculated from 3 independent experiments.
(§2) The compounds were initially tested at 0.1 μM and 1 μM using as a target the promoter of the livJ gene that encodes a transporter of branch-chain amino acids (Table 4).

Salmonella strain 14028s = test: Minimum inhibitory concentration in EG minimal media; format: cell-based, Salmonella Typhimurium; conditions: 18 h; for Growth in EG at concentration tested 1 μg/ml / Growth in EG at concentration tested 2 μg/ml / Growth in EG at concentration tested 4 μg/ml / Growth in EG at concentration tested 8 μg/ml / Growth in EG at concentration tested 16 μg/ml / Growth in EG at concentration tested 32 μg/ml: EG minimal media, 37° C.; for MIC: Salmonella, 14028S
Experimental: DksA controls transcription of metabolic and virulence genes, allowing bacteria to both grow in minimum media and cause disease. Inhibition of bacterial growth in EG minimum media was used as an easy and reliable proxy of the DksA-dependent regulation of metabolism.
In a non-limiting example, wild-type Salmonella strain 14028s was grown overnight (18.5 h), and then diluted in EG minimal media to a density of about 10^5 CFU/mL. […] Each test tube was incubated at 37° C. with shaking for 18 h and bacterial growth was evaluated. The MIC value was determined as the lowest concentration of compound that inhibited growth.

DksA [2] = target: T1, DksA; test: DksA-mediated repression of rpsM in vitro transcription (IVT, qRT-PCR); format: biochemical
Experimental: as §1
The compounds obtained in this screen were further analyzed for binding to the acidic pocket at the tip of DksA coiled-coil domain using the computer search program Dock. The analysis identified over 400 compounds. A panel of 40 compounds was selected from the top hits based on free energy binding scores. These compounds were investigated using the computer modeling program O. Two additional criteria were applied in order to narrow down the list of candidates: First, the compounds needed to fit deep into the pocket without any clashes; and second, the compounds bound to DksA should have minimal exposed moieties. The compounds selected were further refined according to energy minimization as calculated by the CNS program. 23 compounds were obtained from MolPort and they were tested for their ability to interfere with DksA in a high throughput screen that combined in vitro transcription with highly specific and quantitative qRT-PCR. Five of these compounds, including N-(3,4-dimethoxyphenyl)-1H-1,2,4-triazole-3-carboxamide (1), prevented DksA-mediated repression of rpsM in vitro transcription to some degree. […] Without intending to be limited to any particular theory, the effect that 1 has on DksA-dependent rpsM or hisG gene transcription is potentially due to differences in promoter activity.
as §2

Compound solubility = format: physicochemical; conditions: for Compound Solubility, 1 μM: solvent at 1 μM; for Compound Solubility, 10 μM: solvent at 10 μM; for Compound Solubility, 100 μM: solvent at 100 μM; for Compound Solubility, 1 mM: solvent at 1 mM; for Compound Solubility, 10 mM: solvent at 10 mM; for Compound Solubility, 16 mg/ml: solvent at 16 mg/ml

T1 sequence (P0A1G5 whole entry): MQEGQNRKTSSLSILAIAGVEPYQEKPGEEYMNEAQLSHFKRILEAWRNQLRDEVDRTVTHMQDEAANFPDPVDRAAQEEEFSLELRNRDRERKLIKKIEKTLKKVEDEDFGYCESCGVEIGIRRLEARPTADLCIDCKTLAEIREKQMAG

SMILES: O=C(Nc1cc(Cl)cc(Cl)c1)c1nc[nH]n1 [Compound 14, N-(3,5-dichlorophenyl)-1H-1,2,4-triazole-3-carboxamide]
- In vitro transcription assay result, 0.1 μM (DksA [1]): no induction
- In vitro transcription assay result, 1 μM (DksA [1]): no induction
- IVT (DksA [1]): 0.1 µM
- Growth in EG at concentration tested 1 μg/ml (Salmonella strain 14028s): +
- Growth in EG at concentration tested 2 μg/ml (Salmonella strain 14028s): +
- Growth in EG at concentration tested 4 μg/ml (Salmonella strain 14028s): +
- MIC (Salmonella strain 14028s): 8 µg/mL (≈ 31.1 µM)
- IC50 (DksA [2]): 71 nM
- Compound Solubility, 1 μM (Compound solubility): water
- Compound Solubility, 10 μM (Compound solubility): water
- Compound Solubility, 100 μM (Compound solubility): water
- Compound Solubility, 1 mM (Compound solubility): DMSO
- Compound Solubility, 10 mM (Compound solubility): DMSO
- Compound Solubility, 16 mg/ml (Compound solubility): DMSO

SMILES: O=C(NCCCCc1ccccc1)c1nc[nH]n1 [Compound 16, N-(4-phenylbutyl)-1H-1,2,4-triazole-3-carboxamide]
- In vitro transcription assay result, 0.1 μM (DksA [1]): no induction
- In vitro transcription assay result, 1 μM (DksA [1]): good repression
- IVT (DksA [1]): 0.1 µM
- Growth in EG at concentration tested 1 μg/ml (Salmonella strain 14028s): +
- Growth in EG at concentration tested 2 μg/ml (Salmonella strain 14028s): +
- Growth in EG at concentration tested 4 μg/ml (Salmonella strain 14028s): +
- MIC (Salmonella strain 14028s): 16 µg/mL (≈ 65.5 µM)
- IC50 (DksA [2]): 91 nM
- Compound Solubility, 1 μM (Compound solubility): water
- Compound Solubility, 10 μM (Compound solubility): water
- Compound Solubility, 100 μM (Compound solubility): water
- Compound Solubility, 1 mM (Compound solubility): water
- Compound Solubility, 10 mM (Compound solubility): DMSO
- Compound Solubility, 16 mg/ml (Compound solubility): DMSO

SMILES: O=C(NCCc1c[nH]c2ccccc12)c1nc[nH]n1 [Compound 19, N-(2-(1H-indol-3-yl)ethyl)-1H-1,2,4-triazole-3-carboxamide]
- In vitro transcription assay result, 0.1 μM (DksA [1]): no induction
- In vitro transcription assay result, 1 μM (DksA [1]): no induction
- IVT (DksA [1]): 0.1 µM
- Growth in EG at concentration tested 1 μg/ml (Salmonella strain 14028s): +
- Growth in EG at concentration tested 2 μg/ml (Salmonella strain 14028s): +
- Growth in EG at concentration tested 4 μg/ml (Salmonella strain 14028s): +
- Growth in EG at concentration tested 8 μg/ml (Salmonella strain 14028s): +
- MIC (Salmonella strain 14028s): 16 µg/mL (≈ 62.7 µM)
- IC50 (DksA [2]): 75 nM
- Compound Solubility, 1 μM (Compound solubility): water
- Compound Solubility, 10 μM (Compound solubility): water
- Compound Solubility, 100 μM (Compound solubility): water
- Compound Solubility, 1 mM (Compound solubility): water
- Compound Solubility, 10 mM (Compound solubility): water
- Compound Solubility, 16 mg/ml (Compound solubility): DMSO

SMILES: O=C(NCCc1ccccc1)c1nc[nH]n1 [Compound 20, N-phenethyl-1H-1,2,4-triazole-3-carboxamide]
- In vitro transcription assay result, 0.1 μM (DksA [1]): no induction
- In vitro transcription assay result, 1 μM (DksA [1]): no induction
- IVT (DksA [1]): 0.1 µM
- Growth in EG at concentration tested 1 μg/ml (Salmonella strain 14028s): +
- Growth in EG at concentration tested 2 μg/ml (Salmonella strain 14028s): +
- Growth in EG at concentration tested 4 μg/ml (Salmonella strain 14028s): +
- MIC (Salmonella strain 14028s): 8 µg/mL (≈ 37 µM)
- IC50 (DksA [2]): 90 nM
- Compound Solubility, 1 μM (Compound solubility): water
- Compound Solubility, 10 μM (Compound solubility): water
- Compound Solubility, 100 μM (Compound solubility): water
- Compound Solubility, 1 mM (Compound solubility): water
- Compound Solubility, 10 mM (Compound solubility): water
- Compound Solubility, 16 mg/ml (Compound solubility): DMSO

SMILES: C[C@H](NC(=O)c1nc[nH]n1)c1ccccc1 [Compound 18, (S)-N-(1-phenylethyl)-1H-1,2,4-triazole-3-carboxamide]
- In vitro transcription assay result, 0.1 μM (DksA [1]): no induction
- In vitro transcription assay result, 1 μM (DksA [1]): no induction
- IVT (DksA [1]): 0.1 µM
- Growth in EG at concentration tested 1 μg/ml (Salmonella strain 14028s): +
- Growth in EG at concentration tested 2 μg/ml (Salmonella strain 14028s): +
- Growth in EG at concentration tested 4 μg/ml (Salmonella strain 14028s): +
- Growth in EG at concentration tested 8 μg/ml (Salmonella strain 14028s): +
- Growth in EG at concentration tested 16 μg/ml (Salmonella strain 14028s): +
- Growth in EG at concentration tested 32 μg/ml (Salmonella strain 14028s): +
- Compound Solubility, 1 μM (Compound solubility): water
- Compound Solubility, 10 μM (Compound solubility): water
- Compound Solubility, 100 μM (Compound solubility): water
- Compound Solubility, 1 mM (Compound solubility): water
- Compound Solubility, 10 mM (Compound solubility): water
- Compound Solubility, 16 mg/ml (Compound solubility): DMSO

SMILES: O=C(NCCCc1ccccc1)c1nc[nH]n1 [Compound 15, N-(3-phenylpropyl)-1H-1,2,4-triazole-3-carboxamide]
- In vitro transcription assay result, 0.1 μM (DksA [1]): no induction
- In vitro transcription assay result, 1 μM (DksA [1]): no induction
- IVT (DksA [1]): 0.1 µM
- Growth in EG at concentration tested 1 μg/ml (Salmonella strain 14028s): +
- Growth in EG at concentration tested 2 μg/ml (Salmonella strain 14028s): +
- Growth in EG at concentration tested 4 μg/ml (Salmonella strain 14028s): +
- Growth in EG at concentration tested 8 μg/ml (Salmonella strain 14028s): +
- MIC (Salmonella strain 14028s): 16 µg/mL (≈ 69.5 µM)
- IC50 (DksA [2]): 51 nM
- Compound Solubility, 1 μM (Compound solubility): water
- Compound Solubility, 10 μM (Compound solubility): water
- Compound Solubility, 100 μM (Compound solubility): water
- Compound Solubility, 1 mM (Compound solubility): water
- Compound Solubility, 10 mM (Compound solubility): water
- Compound Solubility, 16 mg/ml (Compound solubility): DMSO

SMILES: O=C(NCc1ccc2c(c1)OCO2)c1nc[nH]n1 [Compound 6, N-(benzo[d][1,3]dioxol-5-ylmethyl)-1H-1,2,4-triazole-3-carboxamide]
- In vitro transcription assay result, 0.1 μM (DksA [1]): no change
- In vitro transcription assay result, 1 μM (DksA [1]): no change
- Growth in EG at concentration tested 1 μg/ml (Salmonella strain 14028s): +
- Growth in EG at concentration tested 2 μg/ml (Salmonella strain 14028s): +
- MIC (Salmonella strain 14028s): 8 µg/mL (≈ 32.5 µM)
- Compound Solubility, 1 μM (Compound solubility): water
- Compound Solubility, 10 μM (Compound solubility): water
- Compound Solubility, 100 μM (Compound solubility): water
- Compound Solubility, 1 mM (Compound solubility): water
- Compound Solubility, 10 mM (Compound solubility): water
- Compound Solubility, 16 mg/ml (Compound solubility): DMSO

SMILES: CCCCNC(=O)c1nc[nH]n1 [Compound 12, N-butyl-1H-1,2,4-triazole-3-carboxamide]
- In vitro transcription assay result, 0.1 μM (DksA [1]): no induction
- In vitro transcription assay result, 1 μM (DksA [1]): no induction
- IVT (DksA [1]): 0.1 µM
- Growth in EG at concentration tested 1 μg/ml (Salmonella strain 14028s): +
- Growth in EG at concentration tested 2 μg/ml (Salmonella strain 14028s): +
- Growth in EG at concentration tested 4 μg/ml (Salmonella strain 14028s): +
- MIC (Salmonella strain 14028s): 8 µg/mL (≈ 47.6 µM)
- IC50 (DksA [2]): 73 nM
- Compound Solubility, 1 μM (Compound solubility): water
- Compound Solubility, 10 μM (Compound solubility): water
- Compound Solubility, 100 μM (Compound solubility): water
- Compound Solubility, 1 mM (Compound solubility): water
- Compound Solubility, 10 mM (Compound solubility): water
- Compound Solubility, 16 mg/ml (Compound solubility): DMSO

SMILES: O=C(NCc1cccc(OC(F)(F)F)c1)c1nc[nH]n1 [Compound 9, N-(3-(trifluoromethoxy)benzyl)-1H-1,2,4-triazole-3-carboxamide]
- In vitro transcription assay result, 0.1 μM (DksA [1]): no induction
- In vitro transcription assay result, 1 μM (DksA [1]): Repression
- IVT (DksA [1]): 0.1 µM
- Growth in EG at concentration tested 1 μg/ml (Salmonella strain 14028s): +
- Growth in EG at concentration tested 2 μg/ml (Salmonella strain 14028s): +
- Growth in EG at concentration tested 4 μg/ml (Salmonella strain 14028s): +
- Growth in EG at concentration tested 8 μg/ml (Salmonella strain 14028s): +
- Growth in EG at concentration tested 16 μg/ml (Salmonella strain 14028s): +
- Growth in EG at concentration tested 32 μg/ml (Salmonella strain 14028s): +
- Compound Solubility, 1 μM (Compound solubility): water
- Compound Solubility, 10 μM (Compound solubility): water
- Compound Solubility, 100 μM (Compound solubility): water
- Compound Solubility, 1 mM (Compound solubility): water
- Compound Solubility, 10 mM (Compound solubility): DMSO
- Compound Solubility, 16 mg/ml (Compound solubility): DMSO
